Measured values published in patent US20060030603A1, “Novel aryl urea analogs and use thereof as antibacterial agents” (priority 2004, published 2006).
Values after ≈ are worked out from the molar mass of the structure shown. Read-outs that look alike come from different tables or passages of the source.

What was measured:
S. aureus ATCC 13709 = assay: MIC assay, S. aureus; assay type: cell-based
Experimental: In vitro structure/activity relationship (“SAR”) tests were performed according to the following procedure: MIC assays were carried out in a 150 μL volume in duplicate in 96-well clear flat-bottom plates. The bacterial suspension from an overnight culture growth in the appropriate medium was added to a solution of test compound in 0.5% DMSO in water. Final bacterial inoculum was approximate 10^3-10^4 CFU/well. The percentage growth of the bacteria in the test wells relative to that observed for a control well containing no compound was determined by measuring absorbance at 595 nm (A595) after 20-24 h at 37° C. […] The bacterial strains used for the assays include S. aureus ATCC 13709, S. pyogenes ATCC 49399, E. faecalis ATCC 29212, E. faecium ATCC 6569, E. coli ATCC 25922, K. pneumoniae ATCC 13383, P. vulgaris ATCC 8427, P. aeruginosa ATCC 25416. The results of the in vitro SAR tests are in Tables 1-3.

S. aureus (ATCC 13709) = assay: Mouse Protection Assay (lethal murine model of bacterial infection); assay type: in vivo, ICR-CD-1 female mice; settings: 1 × 2 mg/Kg, positive control, 1 h and 3 h post infection, one week
Experimental: The in vivo tests were preformed according to the following procedure:
Mouse Protection Assay: 10 mice/dose group (ICR-CD-1 female mice 18-20 grams, Charles River) were infected with a lethal dose (10^6 CFU/mouse) of S. aureus (ATCC 13709) suspended in 7.5% hog Gastric Mucin IP. The infected animals were treated at 1 h and 3 h post infection with either compound 12e (lactate salt) from 37 mg/kg down to 2.3 mg/kg or compound 14b (HCl salt) from 75 mg/kg down to 2.3 mg/kg (0.1 mL/mouse). The positive control drug was Vancomycin (Eli Lilly) 1 mg/kg.

[1] = Table 1, thiourea/urea analogs, acetate salts
[2] = Table 2, benzylamino group modified analogs, read-out: MIC S. aureus
[3] = Table 2, benzylamino group modified analogs

SMILES | MIC S. aureus (S. aureus ATCC 13709; [1]) [µM] | also measured
O=C(NCCCNCc1cc(Br)cc(Br)c1)Nc1ccc(Cl)cc1 [9c] | 6 to 12 | –
COc1ccccc1NC(=O)NCCCNCc1cc(Br)cc(Br)c1 [9a] | 25 to 50 | –
O=C(NCCCNCc1cc(Br)cc(Br)c1)Nc1cccc(C(F)(F)F)c1 [9b] | 6 to 12 | –
S=C(NCCCNCc1cc(Br)cc(Br)c1)Nc1ccc(Br)cc1 [8n] | 12 to 25 | –
FC(F)(F)c1ccc(NC(=S)NCCCNCc2cc(Br)cc(Br)c2)cc1 [8p] | 6 to 12 | –
COc1ccccc1NC(=S)NCCCNCc1cc(Br)cc(Br)c1 [8c] | – | MIC (S. aureus ATCC 13709; Table 1, thiourea/urea analogs, acetate salts, read-out: MIC S. aureus): >100 µM
O=C(NCCCNCc1cc(Br)cc(Br)c1O)Nc1ccc(C(F)(F)F)cc1 [12r] | – | MIC (S. aureus ATCC 13709; [2]): >100 µM
CN[C@H](CC(C)C)C(=O)N[C@H]1C(=O)N[C@@H](CC(N)=O)C(=O)N[C@H]2C(=O)N[C@H]3C(=O)N[C@H](C(=O)N[C@H](C(=O)O)c4cc(O)cc(O)c4-c4cc3ccc4O)[C@H](O)c3ccc(c(Cl)c3)Oc3cc2cc(c3O[C@@H]2O[C@H](CO)[C@@H](O)[C@H](O)[C@H]2O[C@H]2C[C@](C)(N)[C@H](O)[C@H](C)O2)Oc2ccc(cc2Cl)[C@H]1O [Vancomycin, reference compound] | – | Mice Alive/Total (S. aureus (ATCC 13709)): 10/10
O=C(NCCCNCc1ccccc1OC(F)(F)F)Nc1ccc(C(F)(F)F)cc1 [12b] | – | MIC S. aureus (S. aureus ATCC 13709; [3]): 12 to 25 µM
S=C(NCCCNCc1cc(Br)cc(Br)c1)Nc1ccc(Cl)c(Cl)c1 [8k, 1-[3-(3,5-Dibromo-benzylamino)-propyl]-3-(3,4-dichloro-phenyl)-thiourea] | – | MIC (S. aureus ATCC 13709; Staphylococcus aureus, ATCC13709, read-out: MIC S. aureus): 3 to 6 µM (≈ 1.58 to 3.16 µg/mL)
S=C(NCCCNCc1cc(Br)cc(Br)c1)Nc1ccc(I)cc1 [8o] | 12 to 25 | –
COc1cccc(NC(=S)NCCCNCc2cc(Br)cc(Br)c2)c1 [8j] | 25 to 50 | –
FC(F)(F)c1cccc(NC(=S)NCCCNCc2cc(Br)cc(Br)c2)c1 [8i] | 6 to 12 | –
CC(=O)Nc1ccc(CNCCCNC(=O)Nc2ccc(C(F)(F)F)cc2)cc1 [12k] | – | MIC (S. aureus ATCC 13709; [2]): >100 µM
COc1ccc(-c2ccc(CNCCCNC(=O)Nc3ccc(C(F)(F)F)cc3)cc2)cc1 [12f] | – | MIC S. aureus (S. aureus ATCC 13709; [3]): 3 to 6 µM
S=C(NCCCNCc1cc(Br)cc(Br)c1)Nc1cccc(Br)c1 [8h] | 6 to 12 | –
Fc1ccccc1NC(=S)NCCCNCc1cc(Br)cc(Br)c1 [8a] | 25 to 50 | –
O=C(NCCCNCc1ccc(Br)[nH]1)Nc1ccc(C(F)(F)F)cc1 [15e, 1-{3-[(5-bromo-1H-pyrrol-2-ylmethyl)-amino]-propyl}-3-(4-trifluoromethyl-phenyl)-urea] | – | MIC (S. aureus ATCC 13709; Staphylococcus aureus, ATCC13709, Table 3, heteroaryl analogs, read-out: MIC S. aureus): 3 to 6 µM (≈ 1.26 to 2.52 µg/mL)
O=[N+]([O-])c1ccc(NC(=S)NCCCNCc2cc(Br)cc(Br)c2)cc1 [8q] | 12 to 25 | –
COc1ccc(NC(=S)NCCCNCc2cc(Br)cc(Br)c2)cc1 [8t] | 25 to 50 | –
O=C(NCCCNCc1cc(Cl)cc(Cl)c1)Nc1ccc(C(F)(F)F)cc1 [12m] | – | MIC S. aureus (S. aureus ATCC 13709; [3]): 6 to 12 µM
S=C(NCCCNCc1cc(Br)cc(Br)c1)Nc1ccc(Cl)cc1 [8m] | 6 to 12 | –
N#Cc1ccc(NC(=S)NCCCNCc2cc(Br)cc(Br)c2)cc1 [8s] | 25 to 50 | –
